# From patent publication US10300069B2, “Carbon monoxide-releasing molecules for therapeutic applications and methods of making and using thereof” (Georgia State University Research Foundation, Inc., priority 2014, dated 2019)
# Legend:
# [1] = Completion time of reaction of TPCPD with cyclooctynes at 50 mM; format: physicochemical; conditions: 50 mM concentration
# RAW cells = test: WST-1 cytotoxicity test on RAW cells; format: cell-based, mouse
# Method: In order to assess the cytotoxic effect of the reactants, 1 and 6a, as well as product 31, on RAW cells, the cytotoxicity test WST-1 was performed to examine induction by TPCPD (1) and BCN (6a) over varying concentrations and periods of time (FIGS. 3A-3C).
# Different concentrations of each molecule were assessed: from 0.78 to 100 μM for 1 and 31 and 7.8 to 1000 μM for 6a. Different time points were assessed (1 h, 4 h, 8 h and 24 h). Triton 0.1% was used as a positive control of cytotoxicity and the subsequent value was established as 100% of cytotoxicity.
# [2] = MTT cytotoxicity test of mannose-modified reactants (FIG. 4)
# Method: The cytotoxicity test, MTT assay, was performed to define the concentration using TPCPD-M (57, 1 mM) and BCN-M (61, 1 mM) (FIG. 4).
# [3] = Intramolecular DARinv (CO release) in DMSO/PBS (7.4) at 37° C.; format: physicochemical
# Description: (§1) Then the reaction mixture was extracted with ethyl acetate, and the obtained organic layer was dried with anhydrous Na2SO4, filtered and concentrated.
# Then the reaction mixture was extracted with ethyl acetate, and the obtained organic layer was dried with anhydrous Na2SO4.
# as §1
# [4] = Water solubility of mannose-modified reactants; format: physicochemical
# TNF-α = test: LPS-induced accumulation of TNF-α by ELISA in RAW 264.7 culture supernatant; format: cell-based, mouse; conditions: tested separately (control)
# Method: RAW264.7 cell were seeded in 6-well plates and incubated overnight. Cells were then stimulated with LPS (10 mg/mL) for 1 h. TPCPD (1) and BCN (6a) (different concentrations) were added to well after 1 hr LPS treatment (same for all wells). As a control, the product (31) was used at same concentration as the anti-inflammation test to confirm that the suppression of TNF-α is result of CO instead of the reagent (or product) themselves (compounds 1, 6a, and 31). TNF-α secretion in the medium was measured with an eBioscience kit (mouse TNF-α ELISA kit, eBioscience, San Diego, Calif., USA).
# TNF-α is a major pro-inflammatory cytokine, mainly secreted from macrophages and dendritic cells. Its production is induced in vitro by stimulation with LPS. The accumulation of TNF-α was assessed by ELISA in the culture supernatant of the macrophage cell line, RAW 264.7 (FIG. 5). The cells were stimulated for 1 h and then co-treated by […] for 24 h. […] A 50% decrease of the LPS-induced accumulation of TNF-α was observed after co-treatment with TPCPD-M and BCN-M at the respective concentration of 1 mM+1 mM.
# As a control, the effect of the TPCPD-M and BCN-M were tested separately (FIG. 5).
# [5] = 8 h, within the concentration range studied
compound,measurement,setting,value
OCC1[C@H]2CCC#CCC[C@@H]12 (stereo partly drawn) [BCN],time in which the reaction with TPCPD finished,[1],≤ 5 min
same,cytotoxicity,RAW cells; [5],Neither 6a (FIG. 3B) and nor the product (FIG. 3C) displayed any sign of cytotoxicity
same,cytotoxicity,"RAW cells; 24 h, 1 mM",60%
"NCC(=O)O.[C-]#[O+].[C-]#[O+].[C-]#[O+].[Cl][Ru] [CORM3, reference compound]",decrease in cell viability,[2]; 1 mM concentration,30%
O=C1C(c2ccccc2)=C(c2ccccc2)C(c2ccccc2)=C1c1ccccc1 [TPCPD],"toxicity (cytotoxicity, Triton 0.1% = 100%)","RAW cells; 8 h, 50 μM",44%
same,"toxicity (cytotoxicity, Triton 0.1% = 100%)","RAW cells; 8 h, 100 μM",49%
same,cytotoxicity,"RAW cells; 24 h, concentrations higher than 12.5 μM",more than 50%
OC[C@@H]1[C@H]2CCc3c(c(-c4ccccc4)c(-c4ccccc4)c(-c4ccccc4)c3-c3ccccc3)CC[C@@H]12 [compound 31],cytotoxicity,RAW cells; [5],Neither 6a (FIG. 3B) and nor the product (FIG. 3C) displayed any sign of cytotoxicity
same,cytotoxicity,"RAW cells; 24 h, within the concentration range tested",not cytotoxic
C#CCOc1ccccc1C1=C2C(=C(C(=O)N3CCOCC3)C1=O)c1cccc3cccc2c13 [compound 51],incubation time after which the intramolecular DARinv reaction was finished,[3],16 h
O=C(NCCOCCOCCOC1OC(CO)C(O)C(O)C1O)OCC1[C@H]2CCC#CCC[C@@H]12 (stereo partly drawn) [compound 61],water solubility,[4],water soluble
same,cytotoxicity (MTT),"[2]; 24 h of treatment, within 1 mM concentration",none of the compounds led to any cytotoxicity
same,inhibition of the LPS-induced accumulation of TNF-α,TNF-α,do not lead to any inhibition
C1#CCCCCCC1 [cyclooctyne],time in which the reaction with TPCPD finished,[1],15 min
fluorocyclooctyne [fluorocycolooctyne],time after which the reaction with TPCPD had not reached completion,[1],> 24 h
